melting point	SMILES
47 to 48 °C	[C-]#[N+]CSc1c(OC)cccc1OC [Example 16, (2,6-dimethoxyphenyl)(isocyanomethyl)sulfane]
54 to 55 °C	[C-]#[N+]CSc1c(OC)cccc1C(F)(F)F [Example 17, 2-((Isocyanomethyl)sulfanyl)-1-methoxy-3-(trifluoromethyl)benzene]

— patent US20150239835A1, “COMPOSITION, SYNTHESIS, AND USE OF A NEW CLASS OF ISONITRILES” (DUQUESNE UNIVERSITY OF THE HOLY GHOST, priority 2014, published 2015)
